Substitutions are numbered along the chain they refer to.
Experiments:
[1] = biological target: T1, spin-labeled SULT1E1, spin label attached at Cys residue 233 (C69S/N233C) (Homo sapiens, UniProt P49888, C69S/N233C); assay: Initial-rate studies, spin-labeled construct (label at Cys 233); format: biochemical; settings: spin label at Cys 233; parentheses = one SD; read-out: Ki OH-PCB1
T1 construct: E. coli codon-optimized SULT1E1 coding region inserted into the PreScission Protease cleavage site; His/GST/MBP triple tag (N, cleaved yes); made in house; host or cells: E. coli BL21(DE3)
T1 sequence (P49888 1-294 C69S/N233C): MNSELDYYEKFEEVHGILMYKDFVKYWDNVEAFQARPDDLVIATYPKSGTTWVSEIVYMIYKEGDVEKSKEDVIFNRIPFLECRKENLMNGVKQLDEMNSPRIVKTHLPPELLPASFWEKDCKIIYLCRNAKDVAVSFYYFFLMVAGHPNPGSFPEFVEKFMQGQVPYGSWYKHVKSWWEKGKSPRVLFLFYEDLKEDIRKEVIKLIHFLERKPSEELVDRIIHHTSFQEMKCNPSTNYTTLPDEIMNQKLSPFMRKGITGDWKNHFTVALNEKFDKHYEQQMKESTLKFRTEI
Protocol: Spin labels were attached to the SULT1E1 scaffold at Cys residues that were site-specifically incorporated via PCR-based mutagenesis. Prior to creating spin-label attachment constructs, reactive Cys was removed from the native scaffold. Only one of the four native SULT1E1 Cys (i.e., C69) reacts with DTNB ([39]), and mutagenic conversion of C69 to ser produced a stable, fully active non-DTNB-reactive scaffold. Five individual cys-attachment constructs were prepared from the C69S mutant (G16C, K25C, N150C, Q163C, and N233C). Mutants were labeled (see, Experimental procedures) and the initial rate parameters (kcat, Km and Ki) of each spin-labeled mutant were determined (see, Experimental procedures, Initial-Rate studies) to evaluate whether the catalytic integrity of the constructs had been compromised by the insertions and/or spin label attachments. […]
Labels (N-cyclohexylmale-imide or 3-maleimido-PROXYL) were added in 20-fold excess over reactive cysteine to a solution containing SULT1E1 construct (50 μM active sites), 0.50 mM PAP, and 50 mM KPO4 (pH 7.4), 25 °C ± 2 deg. […] The reactions were monitored by using DTNB to measure unreacted cysteine and were considered complete when >98% of the cysteine had reacted (∼3 h).
C. Reaction progress was monitored via the fluorescence change associated with 1-HP sulfonation (λex = 325 nm, λem = 370 nm ([51], [52])). […]

SULT1E1 F75A = biological target: T2, SULT1E1 F75A (Homo sapiens, UniProt P49888, F75A); assay: Initial-rate studies (1-HP sulfonation; OH-PCB1 inhibition), F75A mutant; format: biochemical
T2 construct: E. coli codon-optimized SULT1E1 coding region inserted into the PreScission Protease cleavage site; His/GST/MBP triple tag (N, cleaved yes); made in house; host or cells: E. coli BL21(DE3)
T2 sequence (P49888 1-294 F75A): T1 sequence (P49888 1-294 C69S/N233C) with S69C, F75A, C233N
Protocol: C. Reaction progress was monitored via the fluorescence change associated with 1-HP sulfonation (λex = 325 nm, λem = 370 nm ([51], [52])). Initial rates were measured during conversion to product of ≤5% of the concentration-limiting substrate consumed at the reaction endpoint. Velocities were determined in triplicate. Km and kcat were obtained by (1/v^4)-weighted least-squares fitting of the averaged data in double-reciprocal space (i.e., 1/v versus 1/[S]) ([66], [67]).
Inhibition studies were performed as described above except: 1-HP was fixed (2.0 μM, 100 × Km), OH-PCBs were added (0.20–20 × Ki), and SULT1E1 was 0.20 nM (active sites). Ki was determined by least-squares fitting to a noncompetitive inhibition model ([66], [67]).

[2] = test system: estrogen receptor (ER) activation in Ishikawa cells expressing F75A/F80A SULT1E1; assay: cells; format: cell-based, human; settings: Homo sapiens, Ishikawa; F75A/F80A cell line; OH-PCB titration at 10 nM E2 (footnote a); NE = No Effect; read-out: Ligand EC50, ER activation
Protocol: (§1) pcDNA 3.1 constructs harboring either the SULT1E1 WT or double mutant (F75A/F80A) coding regions were generated using Gibson Assembly ([74]). The vectors were linearized using BGIII. Ishikawa cells were grown at 37 °C ± 2 deg. C in growth medium (MEM media containing 10% v/v FBS). At confluence, the cells were washed (3×) with PBS media before coating with an Opti-MEM solution containing a linearized construct (50 ng μg^−1) and lipofectamine (2.5 units ml^−1). After 24 h at 37 °C ± 2 deg. C, cells were washed (3×) with PBS before adding growth medium containing neomycin (400 μg ml^−1) to select transfectants. Selective growth medium was replenished every 48 h until single colonies could be isolated (∼3–6 weeks). Single colonies were transferred using trypsin digest (0.05%) to 12-well plates and grown at 37 °C ± 2 deg. C to confluence for further experimentation and storage.
(§2) Transfected Ishikawa cells were grown at 37 °C ± 2 deg. C to 60 to 70% confluency in MEM containing 10% v/v FBS. Cells were then transferred to 96-well tissue culture plates and grown at 37 °C ± 2 deg. C to 80% confluency in MEM containing 10% v/v charcoal filtered FBS. The plate was then washed with PBS and grown at 37 °C ± 2 deg. C for 24 h in MEM without FBS. Estradiol (0–3.0 μM) and OH-PCB (0–1.0 μM) solubilized in neat DMSO were added and cells were incubated at 37 °C ± 2 deg. C for 5 days. The final concentrations of DMSO were ≤0.10%. Cells were then washed twice with PBS before adding pNpp (5.0 mM) in PBS ([75]). Following incubation with pNpp for 3 h at 25 °C ± 2 deg. C, wells were read at 405 nm using a Synergy HT BioTek Plate Reader.

[3] = test system: estrogen receptor (ER) activation in Ishikawa cells expressing WT SULT1E1; assay: cells; format: cell-based, human; settings: Homo sapiens, Ishikawa; WT cell line; OH-PCB titration at 10 nM E2 (footnote a); parentheses = one SD; read-out: Ligand EC50, ER activation
Protocol: as §1, §2

## Oc1ccc(-c2c(Cl)cccc2Cl)cc1 [OH-PCB1, 4ʹ-OH-2,6-dichlorobiphenol]
[1]
  Ki: 58 nM
SULT1E1 F75A
  Fold Effect = Ki OH-PCB1/Ki OH-PCB1 WT: 11
SULT1E1 F75A; noncompetitive inhibition model, parentheses = one SD
  Ki: 630 nM
[2]
  EC50: > 1000 nM
[3]
  EC50: 38 nM

— publication PMC7949139, “The molecular basis of OH-PCB estrogen receptor activation” (The Journal of Biological Chemistry, 2021)
